Data published in patent publication US20220235065A1 (Epizyme, Inc., priority 2016, published 2022).
Structures can show the parent of a compound that is named as a salt.

Assays:
EHMT1 = target: T1, EHMT1 (Homo sapiens, UniProt Q9H9B1); assay: EHMT1 PEP (EHMT1 peptide enzyme assay); type: biochemical; settings: peptide substrate enzyme assay
T1 sequence (Q9H9B1 1-1298): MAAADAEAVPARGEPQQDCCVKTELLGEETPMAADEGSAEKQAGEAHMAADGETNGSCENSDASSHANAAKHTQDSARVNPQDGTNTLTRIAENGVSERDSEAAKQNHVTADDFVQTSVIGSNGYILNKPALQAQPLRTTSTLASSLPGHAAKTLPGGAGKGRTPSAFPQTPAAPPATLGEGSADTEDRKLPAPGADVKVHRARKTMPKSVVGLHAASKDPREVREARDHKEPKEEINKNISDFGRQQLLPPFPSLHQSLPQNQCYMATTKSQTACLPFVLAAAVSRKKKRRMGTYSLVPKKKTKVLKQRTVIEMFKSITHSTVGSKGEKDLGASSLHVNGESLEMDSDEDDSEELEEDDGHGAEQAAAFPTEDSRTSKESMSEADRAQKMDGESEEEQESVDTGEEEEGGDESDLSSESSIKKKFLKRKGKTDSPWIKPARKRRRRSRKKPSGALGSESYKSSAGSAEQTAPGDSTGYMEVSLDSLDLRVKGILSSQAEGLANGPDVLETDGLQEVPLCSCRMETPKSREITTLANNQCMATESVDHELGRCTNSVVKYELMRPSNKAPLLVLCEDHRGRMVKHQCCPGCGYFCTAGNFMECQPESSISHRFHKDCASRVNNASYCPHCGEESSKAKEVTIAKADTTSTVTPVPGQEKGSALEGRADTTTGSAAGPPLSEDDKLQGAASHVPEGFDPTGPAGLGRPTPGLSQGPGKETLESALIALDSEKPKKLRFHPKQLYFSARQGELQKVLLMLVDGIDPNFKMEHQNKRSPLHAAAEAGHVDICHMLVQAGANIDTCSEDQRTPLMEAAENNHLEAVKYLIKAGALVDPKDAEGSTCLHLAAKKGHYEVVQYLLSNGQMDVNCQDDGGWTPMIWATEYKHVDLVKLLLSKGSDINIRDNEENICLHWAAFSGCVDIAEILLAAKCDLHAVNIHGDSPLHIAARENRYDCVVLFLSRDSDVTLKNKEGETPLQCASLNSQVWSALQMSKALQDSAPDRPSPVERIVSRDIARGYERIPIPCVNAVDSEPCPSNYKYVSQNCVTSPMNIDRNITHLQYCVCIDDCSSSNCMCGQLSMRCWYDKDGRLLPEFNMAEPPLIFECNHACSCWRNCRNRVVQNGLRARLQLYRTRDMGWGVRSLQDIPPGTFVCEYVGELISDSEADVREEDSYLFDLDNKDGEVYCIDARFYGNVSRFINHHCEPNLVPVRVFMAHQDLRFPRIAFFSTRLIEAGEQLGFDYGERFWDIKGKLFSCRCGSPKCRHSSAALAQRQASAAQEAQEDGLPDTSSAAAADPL

[1] = tested on: H3K9me2 in MDA-MB-231 cells; assay: MDA-MB-231 H3K9me2 in-cell western assay; type: cell-based; settings: Homo sapiens, read-out: EHMT2 ICW (IC50 μM)
Description: MDA-MB-231 cell line was purchased from ATCC (Manassas, Va., USA). RPMI/Glutamax medium, Penicillin-Streptomycin, Heat Inactivated Fetal Bovine Serum, and D-PBS were purchased from Life Technologies (Grand Island, N.Y., USA). Odyssey blocking buffer, 800CW goat anti-mouse IgG (H+L) antibody, and Licor Odyssey Infrared Scanner were purchased from Licor Biosciences, Lincoln, Nebr., USA. H3K9me2 mouse monoclonal antibody (Cat #1220) was purchased from Abcam (Cambridge, Mass., USA). 16% Paraformaldehyde was purchased from Electron Microscopy Sciences, Hatfield, Pa., USA). MDA-MB-231 cells were maintained in complete growth medium (RPMI supplemented with 10% v/v heat inactivated fetal bovine serum) and cultured at 37° C. under 5% CO2. UNC0638 was purchased from Sigma-Aldrich (St. Louis, Mo., USA).
General Procedure for MDA-MB-231 HEK9me2 In-Cell Western Assay.
Compound (100 nL) was added directly to 384-well cell plate. MDA-MB-231 cells (ATCC) were seeded in assay medium (RPMI/Glutamax supplemented with 10% v/v heat inactivated fetal bovine serum and 1% Penicillin/Streptomycin, Life Technologies) at a concentration of 3,000 cells per well to a Poly-D-Lysine coated 384-well cell culture plate with 50 μL per well. Plates were incubated at 37° C., 5% CO2 for 48 hours (BD Biosciences 356697). Plates were incubated at room temperature for 30 minutes and then incubated at 37° C., 5% CO2 for additional 48 hours. After the incubation, 50 μL per well of 8% paraformaldehyde (Electron Microscopy Sciences) in PBS was added to the plates and incubated at room temperature for 20 minutes. Plates were transferred to a Biotek 406 plate washer and washed 2 times with 100 μL per well of wash buffer (1×PBS containing 0.3% Triton X-100 (v/v)). Next, 60 μL per well of Odyssey blocking buffer (Licor Biosciences) was added to each plate and incubated for 1 hour at room temperature. Blocking buffer was removed and 20 μL of monoclonal primary antibody α-H3K9me2 (Abcam) diluted 1:800 in Odyssey buffer with 0.1% Tween 20 (v/v) were added and plates were incubated overnight (16 hours) at 4° C. Plates were washed 5 times with 100 μL per well of wash buffer. Next 20 μL per well of secondary antibody was added (1:500 800CW […] anti-mouse IgG (H+L) antibody (Licor Biosciences), 1:1000 DRAQ5 (Cell Signaling Technology) in Odyssey buffer with 0.1% Tween 20 (v/v)) and incubated for 1 hour at room temperature. The plates were washed 5 times with 100 μL per well wash buffer then 2 times with 100 μL per well of water. Plates were allowed to dry at room temperature then imaged on a Licor Odyssey Infrared Scanner (Licor Biosciences) which measured integrated intensity at 700 nm and 800 nm wavelengths. Both 700 and 800 channels were scanned.
% Inhibition Calculation.
First, the ratio for each well was determined by
Each plate included fourteen control wells of DMSO only treatment (Minimum Inhibition) as well as fourteen control wells (background wells) for maximum inhibition treated with control compound UNC0638 (Background wells).
The average of the ratio values for each well was calculated and used to determine the percent inhibition for each test well in the plate. Control compound was serially diluted three-fold in DMSO for a total of 10 test concentrations beginning at 1 μM. Percent inhibition was calculated as: […]
IC50 curves were generated using triplicate wells per concentration of compound. The IC50 is the concentration of compound at which measured methylation is inhibited by 50% as interpolated from the dose response curves. IC50 values were calculated using a non-linear regression (variable slope-four parameter fit model) with by the following formula
where Top is fixed at 100% and Bottom is fixed to 0%, [I]=concentration of inhibitor, IC50=half maximal inhibitory concentration and n=Hill Slope.

| Structure (SMILES) | IC50 (EHMT1) [µM] | IC50 [1] [µM] |
| --- | --- | --- |
| CNc1cc(C)nc(Nc2ccc(OC)c(-c3cn4c(n3)CN(C)CC4)c2)n1 [Compound 6] | > 10 | > 10 |
| CNc1cc(C)nc(Nc2ccc(OC)c(-c3cn4c(n3)CNCC4)c2)n1 [Compound 7] | 0.1 to 1 | 1 to 10 |
| CNc1cc(C)nc(Nc2ccc(OC)c(-c3nc4n(n3)CCNC4)c2)n1 [Compound 8, 2-N-(4-methoxy-3-[4H,5H,6H,7H-[1,2,4]triazolo[1,5-a]pyrazin-2-yl]phenyl)-4-N,6-dimethylpyrimidine-2,4-diamine hydrochloride] | 1 to 10 | > 10 |
| CNc1cc(C)nc(Nc2ccc(OC)c(-c3nc4n(n3)CCN(C)C4)c2)n1 [Compound 9] | > 10 | > 10 |
| CNc1cc(C)nc(Nc2ccc(OC)c(-n3ncc4c3CCN(C)C4)c2)n1 [Compound 10] | 0.1 to 1 | 0.1 to 1 |
| CNc1cc(C)nc(Nc2ccc(OC)c(-c3nnc(C)[nH]3)c2)n1 [Compound 11] | > 10 | > 10 |
| CNc1cc(C)nc(Nc2ccc(OC)c(-c3cn[nH]c3)c2)n1 [Compound 12, 2-N-[4-methoxy-3-(1H-pyrazol-4-yl)phenyl]-4-N,6-dimethylpyrimidine-2,4-diamine] | > 10 | > 10 |
| CNc1cc(C)nc(Nc2ccc(OC)c(-n3cc4ccccc4n3)c2)n1 [Compound 146] | 0.1 to 1 | 1 to 10 |
| CNc1cc(C)nc(Nc2ccc(OC)c(-n3cc4cc(Br)ccc4n3)c2)n1 [Compound 148] | 0.1 to 1 | 1 to 10 |
| CNc1cc(C)nc(Nc2ccc(OC)c(-n3cc4cncc(C)c4n3)c2)n1 [Compound 151] | 0.1 to 1 | 0.1 to 1 |
| CNc1cc(C)nc(Nc2ccc(OC)c(-c3ccc4nc(C)[nH]c4c3)c2)n1 [Compound 155] | > 10 | > 10 |
| CNc1cc(C)nc(Nc2ccc(OC)c(-c3ccc4cc(C)[nH]c4c3)c2)n1 [Compound 156] | > 10 | 1 to 10 |
| CNc1cc(C)nc(Nc2ccc(OC)c(-c3cc4ccncc4[nH]3)c2)n1 [Compound 157, N2-(4-methoxy-3-(1H-pyrrolo[2,3-c]pyridin-2-yl)phenyl)-N4,6-dimethylpyrimidine-2,4-diamine] | < 0.1 | 0.1 to 1 |
| CNc1cc(C)nc(Nc2ccc(OC)c(-c3cc4cnccc4n3C)c2)n1 [Compound 158] | < 0.1 | 0.1 to 1 |
| CNCc1cn(-c2cc(Nc3nc(C)cc(NC)n3)ccc2OC)nn1 [Compound 159, N2-(4-methoxy-3-(4-((methylamino)methyl)-1H-1,2,3-triazol-1-yl)phenyl)-N4,6-dimethylpyrimidine-2,4-diamine] | < 0.1 | 0.1 to 1 |
| CNc1cc(C)nc(Nc2ccc(OC)c(-n3cc(CN(C)C)c(C)n3)c2)n1 [Compound 160] | < 0.1 | 0.1 to 1 |
| CNc1nc2cc(-n3cc(CN(C)C)nn3)c(OC)cc2n1C [Compound 163] | 1 to 10 | 1 to 10 |

| Structure (SMILES) | IC50 (EHMT1) [µM] | IC50 [1] [µM] |
| --- | --- | --- |
| CNc1cc(C)nc(Nc2ccc(OC)c(-n3cc(C(C)NC)nn3)c2)n1 (centres unmarked) [Compound 164] | 0.1 to 1 | 0.1 to 1 |
| CNc1cc(C)nc(Nc2ccc(OC)c(-n3cc(C(NC)C(F)(F)F)nn3)c2)n1 (centres unmarked) [Compound 165] | > 10 | > 10 |
| CNc1cc(C)nc(Nc2ccc(OC)c(-n3cc(C(C)(C)NC)nn3)c2)n1 [Compound 166] | 1 to 10 | > 10 |
| CNc1ccnc(Nc2ccc(OC)c(-n3cnc(CN(C)C)c3)c2)n1 [Compound 170] | < 0.1 | 0.1 to 1 |
| CNc1ccnc(Nc2ccc(OC)c(-n3cc(CN(C)C)nn3)c2)n1 [Compound 171] | < 0.1 | 0.1 to 1 |
| CCNCc1cn(-c2cc(Nc3nccc(NC)n3)ccc2OC)nn1 [Compound 172] | 0.1 to 1 | 1 to 10 |
| CNc1ccnc(Nc2ccc(OC)c(-n3cc(CNCC4CC4)nn3)c2)n1 [Compound 173] | < 0.1 | 1 to 10 |
| CNc1ccnc(Nc2ccc(OC)c(-c3cc4[nH]ncc4cn3)c2)n1 [Compound 174] | > 10 | 1 to 10 |
| CNc1ccnc(Nc2ccc(OC)c(-c3cc4[nH]ccc4cn3)c2)n1 [Compound 175, N2-(4-methoxy-3-(1H-pyrrolo[3,2-c]pyridin-6-yl)phenyl)-N4-methylpyrimidine-2,4-diamine] | < 0.1 | 0.1 to 1 |
| CNc1ccnc(Nc2ccc(OC)c(-n3cc(C4CC4)nn3)c2)n1 [Compound 176] | 0.1 to 1 | 1 to 10 |
| CNc1ccnc(Nc2ccc(OC)c(-n3cc(C4COC4)nn3)c2)n1 [Compound 177] | 1 to 10 | > 10 |
| CNc1ccnc(Nc2ccc(OC)c(-c3ccc4cc[nH]c4c3)c2)n1 [Compound 178] | > 10 | > 10 |
| CNCc1cnn(-c2cc3nc(NC)n(C)c3cc2OC)c1 [Compound 179] | 0.1 to 1 | 1 to 10 |
| CNCc1cnn(-c2cc(Nc3nccc(NC)n3)ccc2OC)c1 [Compound 181, N2-(4-methoxy-3-(4-((methylamino)methyl)-1H-pyrazol-1-yl)phenyl)-N4-methylpyrimidine-2,4-diamine] | < 0.1 | 0.1 to 1 |
| CNCc1cnn(-c2cc3nc(NC)cc(C4CCOCC4)c3cc2OC)c1 [Compound 184] | 0.1 to 1 | 1 to 10 |
| CCNCc1cnn(-c2cc(Nc3nccc(NC)n3)ccc2OC)c1 [Compound 185] | 0.1 to 1 | 1 to 10 |
| CNCc1cnn(-c2cc3c(cc2OC)C2(CCC2)C(N)=N3)c1 [Compound 186] | < 0.1 | 0.1 to 1 |
